Values of other authors, collected in patent publication US11547680B2, “Benzalkonium-embedded mesostructured silica compositions and uses of same” (RUTGERS, THE STATE UNIVERSITY OF NEW JERSEY, priority 2018, dated 2023).

Conditions: aqueous solution

benzalkonium chloride [BAC]
critical micelle concentration (CMC): ca. 0.5 mM
